Measured values taken from ChEMBL document CHEMBL3137667, “[Drug-induced liver injury; fourteenth updated edition of the bibliographic database of liver injuries and related drugs]” (Gastroenterol Clin Biol, 2004).

How the values were obtained:
[1] = Highest frequency of moderate liver toxicity observed during clinical trials, expressed as a percentage. [column '% BIOL' in source]; conditions: human
[2] = Highest frequency of acute liver toxicity observed during clinical trials, expressed as a percentage. [column '% AIGUE' in source]; conditions: human
[3] = Times to onset, minimal and maximal, observed in the indexed observations. [column 'DELAI' in source]; conditions: human
[4] = Proposed mechanism(s) of liver damage. [column 'MEC' in source]; conditions: human
[5] = human, serum
[6] = human, serum; remark: listed apart in the source
[7] = human
[8] = human; remark: listed apart in the source
[9] = human; remark: listed apart in the source
[10] = human, serum, 4383 h
[11] = human; remark: listed apart in the source
[12] = human; remark: listed apart in the source
[13] = human; remark: listed apart in the source
[14] = human; remark: listed apart in the source
[15] = human; remark: listed apart in the source
[16] = human; remark: listed apart in the source
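Wherever Hepatotoxicity (association with vascular disease) is given: count of indexed literature references reporting vascular liver injury in humans, e.g. peliosis hepatitis, hepatic veno-occlusive disease or Budd-Chiari syndrome.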
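Wherever Hepatotoxicity (benign tumour) is given: value is a count of indexed literature references citing a benign tumour confirmed by histopathology.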
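Wherever Hepatotoxicity (choleostasis) is given: human cholestatic liver injury, shown by histopathology or by peak ALT or AST elevation over alkaline phosphatase ratio below 2, value counts indexed literature reports.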
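Wherever Hepatotoxicity (chronic liver disease) is given: chronic liver injury confirmed by histopathology or persistently raised serum aminotransferase activity beyond 6 months, value given as the count of indexed literature references.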
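Wherever Hepatotoxicity (cirrhosis) is given: value is a count of indexed literature references reporting cirrhosis confirmed by histopathology.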
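Wherever Hepatotoxicity (cytolytic) is given: human cytolytic liver injury, shown by histopathology or by a ratio above 5 of peak ALT or AST elevation to alkaline phosphatase elevation, value counts indexed references.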
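Wherever Hepatotoxicity (granulomatous hepatitis) is given: value is a count of indexed literature references reporting granulomatous liver disease confirmed by histopathology.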
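Wherever Hepatotoxicity (malignant tumour) is given: malignant tumour confirmed by histopathology, value gives the count of indexed literature references reporting it.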
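Wherever Hepatotoxicity (severe hepatitis) is given: human clinical data: severe hepatitis, meaning potentially life-threatening liver failure or clinically observed cases, the value counts how many indexed literature references report it.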
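Wherever Hepatotoxicity (steatosis) is given: steatosis confirmed by histopathology, value is the count of indexed references.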

Row | Structure (SMILES) | Hepatotoxicity (moderate) [1] [%] | Hepatotoxicity (acute) [2] [%] | Hepatotoxicity (time to onset) [3] | Hepatotoxicity (mechanism) [4] | Hepatotoxicity (moderate) [5] | Hepatotoxicity (acute) [6] | Hepatotoxicity (cytolytic) [7] | Hepatotoxicity (choleostasis) [8] | Hepatotoxicity (severe hepatitis) [9] | Hepatotoxicity (chronic liver disease) [10] | Hepatotoxicity (cirrhosis) [11] | Hepatotoxicity (granulomatous hepatitis) [12] | Hepatotoxicity (association with vascular disease) [13] | Hepatotoxicity (steatosis) [14] | Hepatotoxicity (malignant tumour) [15] | Hepatotoxicity (benign tumour) [16] | Hepatotoxicity (moderate) ([1]; Liver) [%] | Hepatotoxicity (acute) ([2]; Liver) [%] | Hepatotoxicity (severe hepatitis) ([9]; Liver)
1 | CC(C(=O)O)c1ccc2c(c1)[nH]c1ccc(Cl)cc12 (stereo not given) [CARPROFEN] | 56.3 | 0 | 1 week - 1 month | Dose-dependant | 5 | 0 | 0 | 0 | 0 | 0 | 0 | 0 | 0 | 0 | 0 | 0 | – | – | –
2 | CC1=C(C(=O)O)N2C(=O)[C@@H](NC(=O)[C@H](N)c3ccc(O)cc3)[C@H]2SC1 [CEFADROXIL] | – | – | 4 days - 6 days | Allergic | 1 | 2 | 1 | 2 | – | 0 | 0 | 0 | 0 | 0 | 0 | 0 | 3.1 | 0 | 0
3 | Cc1nnc(SCC2=C(C(=O)O)N3C(=O)[C@@H](NC(=O)Cn4cnnn4)[C@H]3SC2)s1 [CEFAZOLIN] | – | – | 1 week - 25 days | Allergic | 11 | 2 | 1 | 1 | – | 0 | 0 | 0 | 0 | 0 | 0 | 0 | 42.9 | 0 | 0
4 | O=C(O)C1=C(CSc2nnnn2CS(=O)(=O)O)CS[C@@H]2[C@H](NC(=O)[C@H](O)c3ccccc3)C(=O)N12 [CEFONICID] | 29 | 5.9 | 4 days - 20 days | Allergic | 10 | 2 | 0 | 0 | 0 | 0 | 0 | 0 | 0 | 0 | 0 | 0 | – | – | –
5 | CO/N=C(\C(=O)N[C@@H]1C(=O)N2C(C(=O)OC(C)OC(C)=O)=C(COC(N)=O)CS[C@H]12)c1ccco1 (stereo not given in full) [CEFUROXIME AXETIL] | 20 | 0.2 | 4 days | Allergic | 31 | 2 | 0 | 1 | 0 | 0 | 0 | 0 | 0 | 0 | 0 | 0 | – | – | –
6 | CO/N=C(\C(=O)N[C@@H]1C(=O)N2C(C(=O)O)=C(COC(N)=O)CS[C@H]12)c1ccco1 [CEFUROXIME] | 29.1 | 0 | 2 days | Allergic | 8 | 1 | 1 | 0 | 1 | 0 | 0 | 0 | 0 | 0 | 0 | 0 | – | – | –
7 | CC1=C(C(=O)O)N2C(=O)[C@@H](NC(=O)[C@H](N)c3ccccc3)[C@H]2SC1 [CEPHALEXIN ANHYDROUS] | 4.8 | 0 | 1 week - 9 days | Allergic | 4 | 6 | 3 | 4 | 2 | 0 | 0 | 1 | 0 | 0 | 0 | 0 | – | – | –
8 | O=C1CN=C(c2ccccc2Cl)c2cc([N+](=O)[O-])ccc2N1 [CLONAZEPAM] | – | – | 3 weeks - 4 months | Toxic Metabolite | 0 | 2 | 2 | 0 | – | 0 | 0 | 0 | 0 | 0 | 0 | 0 | 0 | 0 | 1
9 | CN(C)/N=N/c1[nH]cnc1C(N)=O [DACARBAZINE] | 50 | 0 | 1 cure - 4 cures | Allergic, Toxic | 12 | 5 | 4 | 2 | 6 | 0 | 0 | 0 | 24 | 0 | 0 | 0 | – | – | –
10 | CN(C)[C@@H]1C(O)=C(C(N)=O)C(=O)[C@@]2(O)C(O)=C3C(=O)c4c(O)ccc(Cl)c4[C@@H](O)[C@H]3C[C@@H]12 [DEMECLOCYCLINE] | 0 | 0 | 2 days - 2 months | Dose-dependant | 0 | 1 | 1 | 0 | 2 | 0 | 0 | 0 | 0 | 1 | 0 | 0 | – | – | –
